Entries after “also recorded” stand apart in the source; their conditions may differ.
Tests used:
[1] = Mass spectrometry of ketoprofen in tissue following topical administration; assay type: in vivo, mouse; conditions: topical preparation delivered daily to mice; mass spectrometry of biopsy
patients with lymphedema [2] = test: Human study: volume of fluid lost from affected limb after 90 days ketoprofen; assay type: in vivo; conditions: 75 mg orally twice or three times per day for 90 days
Experimental: FIG. 23. […] For the purposes of comparing bilateral results to unilateral results, volume lost in bilateral lymphedema was calculated by determining the total volume lost and dividing by 2.
Biopsies were taken pre- and post-treatment, and clinical responses were reassessed monthly. 44 participants were enrolled (FIG. 22), 38 of which had completed the study at the time the data was collected. Average age of the patient was 57 years+/−14 years (24-85 years of age). The average length of time that the patient had had lymphedema was 10+/−10 years (0.5-40 years). Lymphedema was due to the following: breast cancer (12 patients (27.3%)); cervical cancer (6 patients (13.6%)); uterine cancer (2 patients (4.5%)); ovarian cancer (2 patients (4.5%)); penile cancer (1 patient (2.3%)); Hodgkin's lymphoma (2 patients (4.5%)); trauma (5 patients (11.4%)); infection (3 patients (6.8%)); venous insufficiency (3 patients (6.8%)); May-Thurner syndrome (2 patients (4.5%)); primary lymphedema ([…]); other (2 patients (4.5%)).

CD30 and IgE levels = test: Human study: serum analysis of CD30 and IgE; assay type: in vivo; conditions: pre to post treatment
patients with lymphedema [3] = test: Human study: participant outcomes following the clinical trial; assay type: in vivo
patients with lymphedema [4] = test: Human study: histology of cutaneous biopsies (Hematoxylin and Eosin, Sirius Red); assay type: in vivo; conditions: 90 days / 3 months after start of treatment
Source text: FIG. 24. Tissue architecture before and after ketoprofen treatment. (A) Cutaneous biopsies stained with Hematoxylin and Eosin. (B) Cutaneous biopsies stained with Hoechst. “Normal”: unaffected contralateral limb. “Lymphedema, Pre-Rx”: affected tissue at the start of treatment. “Lymphedema post-Rx”: affected tissue 90 days following treatment.
FIG. 25. […] Fibrotic response (thickening tissue, collagen deposition in dermis and subdermis) is quantified by measuring the mean pixel intensity of Sirius Red uptake. […] In lymphedemous tissue (LY), an increase in fibrotic tissue is observed. Three months after the start of treatment (Rx/NL), the tissue has returned to a healthy state. Y axis is the ratio of paired samples. “NL/NL”: fibrosis in unaffected tissue, normalized to the pixel intensity of Sirius Red uptake in the unaffected tissue. “LY/NL”: fibrosis at the start of treatment, normalized to the pixel intensity of Sirius Red uptake in the unaffected tissue. “Rx/NL”: fibrosis after 3 months treatment, normalized to the pixel intensity of Sirius Red uptake in the unaffected tissue.
Biopsies were taken pre- and post-treatment, and clinical responses were reassessed monthly. 44 participants were enrolled (FIG. 22), 38 of which had completed the study at the time the data was collected. Average age of the patient was 57 years+/−14 years (24-85 years of age). […]

Log Kow = assay type: physicochemical
[5] = system: tail lymphedema in SKH-1 mice; test: Histology and histomorphometric quantitation of epidermal thickness (Example 4); assay type: in vivo, mouse; conditions: for histological changes in mice with lymphedema: hematoxylin/eosin
Experimental: Immediately after sacrifice, 0.5-g sections of tail were harvested for histological analysis and RNA extraction. Sections extended from a point 4 mm proximal to the surgical incision to 8 mm beyond it. The specimens were fixed overnight in 4% paraformaldehyde, embedded in paraffin, cut into 5-μm sections, stained with hematoxylin and eosin (Richard-Allan Scientific, Kalamazoo, Mich.), and examined by light microscopy.
Epidermal thickness was measured serially using digital images of histology slides stained with hematoxylin and eosin. Processing and analysis were performed using Adobe Photoshop CS4 and ImageJ (http://rsbweb.nih.gov/ij) as previously described with modifications (Sanders J E, et al. Comput Methods Programs Biomed. 1999; 59:167-180). Quantitative measurements were imported to Prism 5 software (GraphPad Software Inc., La Jolla, Calif.) for statistical analysis and graphing.

[6] = system: CD11B+ cells and CD4+ helper T cells in affected tissue; test: Human study: immunohistochemistry of CD11b+ and CD4+ cell infiltrates in biopsies; assay type: in vivo; conditions: 4th clinical follow up visit
Experimental: FIG. 26. […] 3 samples from each patient were analyzed by paired analysis: NL (biopsy from an unaffected limb), 1-LY (biopsy from affected limb), and 4-LY (4th clinical follow up visit).
FIG. 29. Quantification of CD4+ helper T cell involvement in lymphedema pathology. 3 samples from each patient were analyzed by paired analysis: NL (biopsy from an unaffected limb), 1-LY (biopsy from affected limb), and 4-LY (4th clinical follow up visit).
To determine the cellular basis for the lymphedema pathology, lymphedemous tissue was analyzed for the aberrant presence of immune cells.

[7] = system: gene expression in lymphedemous tissue; test: Paired whole genome transcriptional profiling of human lymphedema (Agilent human array); assay type: in vivo; conditions: of the 8431 genes altered in lymphedema versus normal tissue
Experimental: Paired whole genome transcriptional profiling was performed using the Agilent human array (n=30). Expression profiles of untreated and post-treated lymphedemous tissue were compared to the normal cutaneous RNA from the same subject.

[8] = system: cytokine levels in tail skin; test: Tissue cytokine assays (Luminex) in tail skin homogenates; assay type: in vivo, mouse
Experimental: Cytokine levels in tail skin were measured in normal controls and mice with untreated, NSAID-treated, and sTNF-R1-treated lymphedema (n=3 per group) sacrificed on postoperative day 7. The Luminex LabMap200 System was used to measure the levels of 42 cytokines from the supernatant of tissue homogenates. Multiplex cytokine kits were purchased from Panomics (Fremont, Calif.), and the assay was performed according to the manufacturer's recommendation with the following modifications: 25-50 μl of samples, standards, and controls were added in duplicate to 96-well filter plates pre-configured with a panel of anti-cytokine antibodies covalently linked to unique polystyrene beads. The plate was incubated overnight at 4° C. in the dark with shaking at 500 rpm, vacuum aspirated, and washed three times with 140 μl of wash buffer to remove unbound antigen. Biotinylated detection antibody solution (25 μl) was added to each well and incubated for 1 hour with shaking at 500 rpm at room temperature. The plate was incubated with 50 μl of streptavidin-phycoerythrin for 35 minutes and then with 120 μl of reading buffer for 3 minutes at room temperature with shaking. After laser excitation, digital images of the bead array were captured with a CCD camera and analyzed on a computer workstation with BeadView software.

[9] = system: TNF-α, MCP-1, VEGF-C, VEGF-D, VEGFR-3, Prox1, LYVE-1 expression; test: Targeted gene expression analysis by quantitative real-time RT-PCR in tail skin; assay type: in vivo, mouse
Experimental: Primers and probes were from Assays-on-Demand (Applied Biosystems, Foster City, Calif.). cDNA was synthesized from 5 μg of total RNA with Taqman reverse-transcription reagents (Applied Biosystems) and amplified in triplicate at 50° C. for 2 minutes and 95° C. for 10 minutes, followed by 40 cycles of 95° C. for 15 seconds and 60° C. for 1 minute. Reactions without template and/or enzyme were used as negative controls. 18S ribosomal RNA served as an internal control. A standard curve derived from embryonic mouse RNA was plotted for each target gene by linear regression using SPSS software (v. 11.0, Applied Biosystems). RNA quantity was expressed relative to the corresponding 18S control. Fold differences were calculated by dividing the experimental results by the pooled normal results and were plotted on a log 10 scale.

[10] = postoperative day 7, listed as NSAID
[11] = day 11, lymphedema mice, listed as NSAID
[12] = lymphedema mice, listed as NSAID

SMILES: CC(C(=O)O)c1cccc(C(=O)c2ccccc2)c1 (stereo not shown) [ketoprofen]
- permeation of topically administered drug into skin layers [1]: permeates into the deepest layers of the skin
- fluid lost from the affected limb, unilateral lymphedema (average) (patients with lymphedema [2]): 354 milliliters
- fluid lost from one affected limb, bilateral lymphedema (average) (patients with lymphedema [2]; total volume lost divided by 2): 533 milliliters
- serum CD30 amounts, average decrease after treatment (CD30 and IgE levels): 13%
- participants who describe the affected limb as normal in size (patients with lymphedema [3]): 2%
- participants who described relief from pain (patients with lymphedema [3]): 7%
- participants who discontinued chronic use of compression garments (patients with lymphedema [3]): 9%
- participants who elected to continue off-label treatment (patients with lymphedema [3]): 100%
- participants who noted that the affected limb feels lighter (patients with lymphedema [3]): 7%
- participants who noted that the compression garment is loose (patients with lymphedema [3]): 2%
- tissue architecture, protein deposition and fibrosis in cutaneous biopsies (patients with lymphedema [4]): reversal of disease-associated protein deposition and fibrosis; also recorded: restoration in the tissue architecture; also recorded: abrogates the inflammation that leads to a fibrotic response in the skin
- Log Kow (Log Kow): 3.00
- epidermal thickness (ET) compared to untreated LY mice ([5]; FIG. 14B): significantly reduced
- epidermal thickness decreased, compared to untreated lymphedema mice ([5]; day 11): 47.0±5.1%
- histological changes in mice with lymphedema ([5]; day 11): substantial normalization from the untreated histology
- histological changes in mice with lymphedema ([5]; day 11, listed as NSAID): normalization of histological changes; also recorded: normalizes these pathological findings
- CD4+ cells in affected tissue after treatment [6]: absent
- CD11B+ cells in affected tissue after treatment [6]: absent; also recorded: returns CD11b counts to normal
- fraction of altered genes displaying directional normalization after treatment [7]: 72%
- number of genes displaying directional normalization after treatment [7]: 6050
- MCP-1 tissue levels (protein) ([8]; postoperative day 7): further increased
- MCP-3 tissue levels (protein) [8, 10]: significantly reduced; also recorded: inhibited
- macrophage inflammatory protein 1a (MIP1a) tissue levels [8, 10]: inhibited
- TNF-α tissue levels (protein) ([8]; postoperative day 7, median fluorescence intensity): significantly higher
- Prox1 expression ([9]; day 11, lymphedema mice): significant, parallel up-regulation
- TNF-α expression (mRNA) ([9]; day 11, lymphedema mice): further increased
- MCP-1 expression (mRNA) [9, 11]: significantly induced
- Prox1 expression [9, 11]: significantly induced
- TNF-α expression (mRNA) [9, 11]: significantly induced
- VEGF-C expression (mRNA) ([9]; lymphedema mice): significant upregulation
- VEGFR-3 expression ([9]; lymphedema mice): significantly upregulated
- VEGF-C expression (mRNA) [9, 12]: significant, parallel up-regulation; also recorded: significantly induced
- VEGFR-3 expression [9, 12]: significant, parallel up-regulation; also recorded: significantly induced
- VEGF-D expression (mRNA) ([9]; lymphedema mice, vs vehicle): significant upregulation

Reference: patent publication US8965708B2, “Method for the treatment of acquired lymphedema” (The Board of Trustees of the Leland Stanford Junior …, priority 2006, dated 2015)
